Columns and labels:
Assay type in all cases: biochemical
Human lung tryptase = assay: Ki determination, human lung tryptase (Tosyl-Gly-Pro-Arg-pNA substrate); conditions: 50 mM Tris-HCl pH 8.0, 37° C., 1 nM tryptase, 320 μM GPR-pNA; read-out: Experimentally Determined Ki, Tryptase
Procedure: (§1) Protease inhibition was assayed according to published procedures with minor modifications using various proteases and specific chromogenic peptide p-nitroanilide substrates. Assays were performed in Costar ultra-low cluster 96-well microtiter plate (Costar Corning Corp., Cambridge Mass.). Each protease was incubated with various concentrations of the test compound for 15 min. at 37° C. or as otherwise indicated, in specific assay buffer, and the residual activity was then measured by addition of the substrate. p-Nitroaniline produced by the proteolysis was determined by measuring the change in absorbance at 405 nm on a SpectraMAX 340 plate reader (Molecular devices, Sunnyvale, Calif.).
(§2) 1. The inhibition constant, Ki is calculated from individual data points using the equation for a tight-binding inhibitor (See Beith, "Proteinase Inhibitors-Proceedings of 2nd Int. Res. Conference", Fritz, et al. eds, New York, p.4463-4469 (1974)):
(§3) vi /vo [((Ki '+[I]+[E]o)^2 -4 [I]o
(§4) [E]o)^1/2 (Ki '+[I]o -[E]o)]/2[E]o
(§5) where Ki ' is apparent inhibition constant; vi and vo are the inhibited and uninhibited rates, respectively; [I]o and [E]o are the total concentrations of inhibitor and enzyme, respectively.
(§6) [note: [E]o is determined by active site titration of enzyme]
(§7) The Ki values are obtained by correcting Ki ' values for the effect of substrate concentration according to: [formula]
(§8) 2. Other inhibition data (Ki >>[E]o), the Ki is calculated from using the equations for a competitive inhibitor: [formula]
Human lung tryptase purchased from Cortex Biochem (San Leandro, Calif.) was purified further on a Superdex 200 gel-filtration column. The active-site concentration of the enzyme was determined by spectrophotometric titration with 4-nitrophenyl 4'-guanidinobenzoate according to Schwartz, et al., J. Immunol., 114, 2304-2311 (1990). Tryptase activity was measured according to the procedures of Schwartz, et al., J. Biol. Chem., 261, 7372-7379 (1986) (See also, Schwartz, L. B., Methods In Enzymology, 244, 88 (1994)) with minor modifications, using Tosyl-Gly-Pro-Arg-p-nitroanilide ("GPR-pNA", Sigma Chemical Co., St. Louis, Mo., T-1637) as a chromogenic substrate. The reaction was performed in 50 mM Tris-HCl, pH 8.0, containing 150 mM NaCl and 0.02% Triton X-100 at 37° C. in Costar ultra-low cluster 96-well microtiter plates (Costar Corning Corp., Cambridge, Mass.). The amount of pNA produced by tryptase was determined by measuring the change in absorbance at 405 nm on a SpectraMAX 340 plate reader (Molecular devices, Sunnyvale, Calif.). The Km for the substrate was determined by Lineweaver-Burk analysis from initial velocities of substrate hydrolysis. The inhibition assay was carried out in a total volume of 200 μL. Tryptase (30 μL- final concentration 1 nM) was incubated with various concentrations of sample compound (50 μL) to be tested in the above assay buffer for 5 min. The reaction was started by the addition of substrate GPR-pNA (40 μL-final concentration 320 μM), and the residual activity was measured after 15 min. of incubation. The inhibition constant, Ki, was determined by fitting the inhibition data to a two-site competitive binding equation using data analysis program GraphPad PRISM (GraphPad Software, Inc., San Diego, Calif.).
(§9) The inhibition constant (Ki) of the test compounds against each proteolytic enzyme was determined according to Zitnik et al., Biochem. Biophys. Res. Commun. 232, 687-697 (1997)).

[1] = molecular target: T1, Bovine pancreatic Trypsin (Bos taurus, UniProt P00760); assay: Ki determination, bovine pancreatic trypsin (N-a-Benzoyl-L-Arg-pNA); conditions: 50 mM Tris-HCl, pH 8.2, 20 mM CaCl2; read-out: Experimentally Determined Ki, Trypsin
T1 construct: from tissue; host or cells: bovine pancreas
T1 sequence (P00760 24-246): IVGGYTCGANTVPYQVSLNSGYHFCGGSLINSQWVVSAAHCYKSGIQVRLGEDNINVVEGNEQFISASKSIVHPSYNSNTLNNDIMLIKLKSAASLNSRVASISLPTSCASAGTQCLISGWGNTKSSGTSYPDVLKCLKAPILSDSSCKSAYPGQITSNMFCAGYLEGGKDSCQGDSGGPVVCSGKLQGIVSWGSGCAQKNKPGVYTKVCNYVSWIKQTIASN
Procedure: as §1, §2, §3, §4, §5, §6, §7, §8
Bovine pancreatic Trypsin (TPCK-treated) activity was determined by using N-a-Benzoyl-L-Arg-pNA in 50 mM Tris-HCl, pH 8.2, 20 mM CaCl2 (See Somorin, et al., J. Biochem. 85, 157-162 (1979)).
as §9

Human plasma thrombin = molecular target: T2, Human plasma thrombin (Homo sapiens, UniProt P00734); assay: Ki determination, human plasma thrombin (H-D-Phe-Pip-Arg-pNA); conditions: 50 mM Tris-HCl, pH 8.3, 100 mM NaCl, 1% BSA; read-out: Experimentally Determined Ki, Thrombin
T2 construct: from tissue; host or cells: human plasma
Procedure: as §1, §2, §3, §4, §5, §6, §7, §8
Human plasma thrombin activity was determined by using H-D-Phe-Pip-Arg-pNA in 50 mM Tris-HCl, pH 8.3, 100 mM NaCl, 1% BSA (See Lottenberg, et al. Meth. Enzymol. 80, 341-361 (1981)).
as §9

Human plasma factor Xa = molecular target: T3, Human plasma factor Xa (Homo sapiens, UniProt P00742); assay: Ki determination, human plasma factor Xa (N-Benzoyl-Ile-Glu-Gly-Arg-pNA); conditions: 50 mM Tris-HCl, pH 7.8, 200 mM NaCl, 0.05% BSA; read-out: Experimentally Determined Ki, Factor Xa
T3 construct: from tissue; host or cells: human plasma
Procedure: as §1, §2, §3, §4, §5, §6, §7, §8
Human plasma factor Xa activity was determined by using N-Benzoyl-Ile-Glu-Gly-Arg-pNA in 50 mM Tris-HCl, pH 7.8, 200 mM NaCl, 0.05% BSA (See Lottenberg, et al. Meth. Enzymol. 80, 341-361 (1981)).
as §9

r-tissue kallikrein = r-tissue kallikrein (Homo sapiens, UniProt P06870); assay: Ki determination, r-tissue kallikrein (DL-Val-Leu-Arg-pNA); conditions: 50 mM Tris-HCl, pH 7.8, 200 mM NaCl, 0.05% BSA; read-out: Experimentally Determined Ki, Tissue Kallikrein
Procedure: as §1, §2, §3, §4, §5, §6, §7, §8
(§10) I. Human Plasma and r-Tissue Kallikrein
(§11) Human plasma and r-tissue kallikrein activity were determined in 50 mM Tris-HCl, pH 7.8, 200 mM NaCl, 0.05% BSA by using H-D-Prolyl-Phe-Arg-pNA and DL-Val-Leu-Arg-pNA, respectively (See Lottenberg, et al., Meth. Enzymol. 80, 341-361 (1981)).
as §9

Human plasma kallikrein = molecular target: T4, Human plasma kallikrein (Homo sapiens, UniProt P03952); assay: Ki determination, human plasma kallikrein (H-D-Prolyl-Phe-Arg-pNA); conditions: 50 mM Tris-HCl, pH 7.8, 200 mM NaCl, 0.05% BSA; read-out: Experimentally Determined Ki, Plasma Kallikrein
T4 construct: from tissue; host or cells: human plasma
Procedure: as §1, §2, §3, §4, §5, §6, §7, §8, §10, §11, §9

Human plasma plasmin = molecular target: T5, Human plasma plasmin (Homo sapiens, UniProt P00747); assay: Ki determination, human plasma plasmin (Tosyl-Gly-Pro-Lys-pNA); conditions: 100 mM Tris-HCl, pH 7.4, 100 mM NaCl, 0.05% Triton X-100; read-out: Experimentally Determined Ki, Plasmin
T5 construct: from tissue; host or cells: human plasma
Procedure: as §1, §2, §3, §4, §5, §6, §7, §8
Human plasma plasmin activity was determined by using Tosyl-Gly-Pro-Lys-pNAin 100 mM Tris-HCl, pH 7.4, 100 mM NaCl, 0.05% Triton X-100 (See Lottenberg, et al., Meth. Enzymol. 80, 341-361 (1981)).
as §9

[2] = molecular target: T6, Human Neutrophil elastase (Homo sapiens, UniProt P08246); assay: Ki determination, human neutrophil elastase (pyroGlu-Pro-Val-pNA); conditions: 100 mM Tris-HCl, pH 8.3, 0.96 M NaCl, 1% BSA; read-out: Experimentally Determined Ki, Elastase
T6 construct: from tissue; host or cells: human neutrophils
T6 sequence (P08246 30-267): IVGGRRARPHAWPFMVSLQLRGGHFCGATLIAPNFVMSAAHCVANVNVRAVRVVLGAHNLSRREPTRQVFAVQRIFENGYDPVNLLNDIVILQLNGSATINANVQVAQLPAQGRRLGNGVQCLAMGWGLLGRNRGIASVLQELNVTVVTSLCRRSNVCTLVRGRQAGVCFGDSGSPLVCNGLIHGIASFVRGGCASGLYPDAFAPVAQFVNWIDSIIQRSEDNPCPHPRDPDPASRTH
Procedure: as §1, §2, §3, §4, §5, §6, §7, §8
Human Neutrophil elastase activity was determined by using pyroGlu-Pro-Val-pNA in 100 mM Tris-HCl, pH 8.3, 0.96 M NaCl, 1% BSA (See Kramps, et al. Scand. J. Clin. Lab. Invest. 43, 427-432 (1983)).
as §9

[3] = molecular target: T7, Human Neutrophil Cathepsin G (Homo sapiens, UniProt P08311); assay: Ki determination, human neutrophil cathepsin G (N-Suc-Ala-Ala-Pro-Phe-pNA); conditions: 625 mM Tris-HCl, pH 7.5, 2.5 mM MgCl2, 0.125% Brij 35; read-out: Experimentally Determined Ki, Cathepsin G
T7 construct: from tissue; host or cells: human neutrophils
T7 sequence (P08311 21-255): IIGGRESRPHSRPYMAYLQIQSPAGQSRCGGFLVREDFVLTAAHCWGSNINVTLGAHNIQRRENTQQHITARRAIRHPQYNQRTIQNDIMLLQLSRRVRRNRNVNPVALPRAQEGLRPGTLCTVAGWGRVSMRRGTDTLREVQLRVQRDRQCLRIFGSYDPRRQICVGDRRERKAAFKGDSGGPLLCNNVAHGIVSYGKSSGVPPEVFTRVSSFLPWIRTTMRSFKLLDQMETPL
Procedure: as §1, §2, §3, §4, §5, §6, §7, §8
Human Neutrophil Cathepsin G activity was determined by using N-Suc-Ala-Ala-Pro-Phe-pNA in 625 mM Tris-HCl, pH 7.5, 2.5 mM MgCl2, 0.125% Brij 35 (See Groutas et al., Arch. Biochem. Biophys. 294, 144-146 (1992)).
as §9

[4] = molecular target: T8, Bovine Pancreatic Chymotrypsin (Bos taurus, UniProt P00766); assay: Ki determination, bovine pancreatic chymotrypsin (N-Suc-Ala-Ala-Pro-Phe-pNA); conditions: 100 mM Tris-HCl, pH 7.8, 10 mM CaCl2; read-out: Experimentally Determined Ki, Chymotrypsin
T8 construct: from tissue; host or cells: bovine pancreas
Procedure: as §1, §2, §3, §4, §5, §6, §7, §8
Bovine Pancreatic Chymotrypsin activity was determined by using N-Suc-Ala-Ala-Pro-Phe-pNA in 100 mM Tris-HCl, pH 7.8, 10 mM CaCl2 (See Delmar, et al., J. Biochem. 85, 157-162 (1979)).
as §9

T3 sequence (P00742 235-488 limits assumed): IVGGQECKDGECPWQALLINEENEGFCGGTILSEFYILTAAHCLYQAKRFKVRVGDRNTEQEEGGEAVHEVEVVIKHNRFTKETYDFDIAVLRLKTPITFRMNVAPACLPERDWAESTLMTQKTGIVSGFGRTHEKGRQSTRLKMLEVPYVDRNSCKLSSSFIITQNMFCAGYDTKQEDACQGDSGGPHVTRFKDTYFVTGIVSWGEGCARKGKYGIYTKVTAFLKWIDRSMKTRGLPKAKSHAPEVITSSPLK
T3 sequence (P00742 41-179 partner limits assumed): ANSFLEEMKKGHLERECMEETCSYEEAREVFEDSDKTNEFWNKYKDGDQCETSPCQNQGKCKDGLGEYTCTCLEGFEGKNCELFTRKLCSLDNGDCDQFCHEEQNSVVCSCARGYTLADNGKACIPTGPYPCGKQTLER
T5 sequence (P00747 581-810 limits assumed): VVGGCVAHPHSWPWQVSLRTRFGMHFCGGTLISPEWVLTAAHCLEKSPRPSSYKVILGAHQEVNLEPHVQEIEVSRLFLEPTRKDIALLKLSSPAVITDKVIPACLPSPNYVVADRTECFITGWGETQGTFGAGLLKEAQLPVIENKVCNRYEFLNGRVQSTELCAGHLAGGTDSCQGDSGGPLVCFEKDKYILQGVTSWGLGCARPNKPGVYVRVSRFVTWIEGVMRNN
T5 sequence (P00747 97-580 partner limits assumed): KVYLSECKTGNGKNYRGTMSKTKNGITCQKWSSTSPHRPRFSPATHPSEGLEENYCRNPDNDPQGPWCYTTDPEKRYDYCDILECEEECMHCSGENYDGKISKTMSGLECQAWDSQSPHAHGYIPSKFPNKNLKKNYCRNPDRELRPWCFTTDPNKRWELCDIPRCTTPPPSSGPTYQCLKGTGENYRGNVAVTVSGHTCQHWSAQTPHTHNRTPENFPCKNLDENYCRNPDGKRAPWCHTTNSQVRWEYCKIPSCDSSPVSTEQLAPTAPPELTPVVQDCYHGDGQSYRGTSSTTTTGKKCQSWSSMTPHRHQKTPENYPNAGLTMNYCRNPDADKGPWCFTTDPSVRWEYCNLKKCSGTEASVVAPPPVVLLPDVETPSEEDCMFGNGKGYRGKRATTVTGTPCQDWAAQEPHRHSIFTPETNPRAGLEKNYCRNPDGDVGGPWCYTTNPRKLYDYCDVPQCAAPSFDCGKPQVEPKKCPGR
T4 sequence (P03952 391-638 limits assumed): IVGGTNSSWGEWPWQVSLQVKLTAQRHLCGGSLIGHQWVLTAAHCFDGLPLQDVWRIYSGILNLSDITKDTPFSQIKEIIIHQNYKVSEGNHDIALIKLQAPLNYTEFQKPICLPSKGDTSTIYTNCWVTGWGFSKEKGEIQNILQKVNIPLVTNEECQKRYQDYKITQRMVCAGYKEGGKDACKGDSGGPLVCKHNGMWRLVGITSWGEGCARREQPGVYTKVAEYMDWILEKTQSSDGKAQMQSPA
T4 sequence (P03952 20-390 partner limits assumed): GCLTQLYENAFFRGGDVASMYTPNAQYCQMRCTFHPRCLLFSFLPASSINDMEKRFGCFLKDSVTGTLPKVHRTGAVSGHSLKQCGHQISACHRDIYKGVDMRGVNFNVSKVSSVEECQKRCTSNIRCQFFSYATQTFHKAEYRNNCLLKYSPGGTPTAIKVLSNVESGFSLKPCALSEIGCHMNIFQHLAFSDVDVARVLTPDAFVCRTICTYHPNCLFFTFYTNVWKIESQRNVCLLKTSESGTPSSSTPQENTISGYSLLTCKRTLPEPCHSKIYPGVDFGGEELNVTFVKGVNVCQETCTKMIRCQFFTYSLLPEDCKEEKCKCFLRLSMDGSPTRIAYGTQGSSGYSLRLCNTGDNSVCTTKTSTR
r-tissue kallikrein, sequence (P06870 25-262): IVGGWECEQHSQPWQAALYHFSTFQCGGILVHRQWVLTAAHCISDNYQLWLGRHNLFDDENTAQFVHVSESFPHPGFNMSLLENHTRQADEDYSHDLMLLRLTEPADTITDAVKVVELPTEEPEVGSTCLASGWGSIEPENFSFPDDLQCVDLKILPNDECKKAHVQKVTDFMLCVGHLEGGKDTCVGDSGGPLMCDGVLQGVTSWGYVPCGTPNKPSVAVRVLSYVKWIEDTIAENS

Row | SMILES | Ki (Human lung tryptase) | Ki [1] | Ki (Human plasma thrombin) | Ki (Human plasma factor Xa) | Ki (r-tissue kallikrein) | Ki (Human plasma kallikrein) | Ki (Human plasma plasmin) | Ki [2] | Ki [3] | Ki [4]
1 | N=C(N)c1ccc(S(=O)(=O)NCc2ccc(OCCOc3ccc(CNS(=O)(=O)c4ccc(C(=N)N)cc4)cc3)cc2)cc1 [Example 52, 1,2-Bis-{4-[(4-carbamimidoyl-benzenesulfonylamino)-methyl]-phenoxy}-ethane] | 1.5 µM |  |  |  |  |  |  |  |  | 
2 | N=C(N)c1ccc(S(=O)(=O)NCc2ccc(OCCCCOc3ccc(CNS(=O)(=O)c4ccc(C(=N)N)cc4)cc3)cc2)cc1 [Example 48, 1,4-Bis-{4-[(4-carbamimidoyl-benzenesulfonylamino)-methyl]-phenoxy}-butane] | 12.5 µM | 4.2 µM |  |  |  |  |  |  |  | 
3 | N=C(N)c1cccc(S(=O)(=O)NCc2cccc(OCCCCCOc3cccc(CNS(=O)(=O)c4cccc(C(=N)N)c4)c3)c2)c1 [Example 75, 1,5-Bis-{3[-(3-carbamimidoyl-benzenesulfonylamino)-methyl]-phenoxy}-pentane] |  | 3 µM | > 100 µM | 6 µM | > 100 µM | 2.9 µM | > 100 µM | > 100 µM | > 100 µM | > 100 µM
4 | N=C(N)c1ccc(S(=O)(=O)NCc2ccc(OCCCCCCOc3ccc(CNS(=O)(=O)c4ccc(C(=N)N)cc4)cc3)cc2)cc1 [Example 44, 1,6-Bis-{4-[(4-carbamimidoyl-benzenesulfonylamino)-methyl]-phenoxy}-hexane] | 3.2 µM | 8 µM |  |  |  |  |  |  |  | 
5 | N=C(N)c1ccc(S(=O)(=O)NCc2ccc(OCCCCCCCOc3ccc(CNS(=O)(=O)c4ccc(C(=N)N)cc4)cc3)cc2)cc1 [Example 46, 1,7-Bis-{4-[(4-carbamimidoyl-benzenesulfonylamino)-methyl]-phenoxy}-heptane] | 1.5 µM |  |  |  |  |  |  |  |  | 
6 | N=C(N)c1ccc(S(=O)(=O)NCc2cccc(OCCCCCOc3cccc(CNS(=O)(=O)c4ccc(C(=N)N)cc4)c3)c2)cc1 [Example 74, 1,5-Bis-{3-[(4-carbamimidoyl-benzenesulfonylamino)-methyl]-phenoxy}-pentane] |  | 1.4 µM | > 100 µM | 40 µM | 16 µM | 9 µM | 3.7 µM | > 100 µM | > 100 µM | > 100 µM
7 | N=C(N)c1ccc(S(=O)(=O)NCc2ccc(OCCCCCOc3ccc(CNS(=O)(=O)c4ccc(C(=N)N)cc4)cc3)cc2)cc1 [Example 42, 1,5-Bis-{4-[(4-carbamimidoyl-benzenesulfonylamino)-methyl]-phenoxy}-pentane] | 0.25 µM |  | > 100 µM | 47 µM |  |  | > 100 µM | > 100 µM | > 100 µM | 
8 | N=C(N)c1ccc2[nH]c(CC(=O)NCc3ccc(CNCCNCc4ccc(CNC(=O)Cc5nc6cc(C(=N)N)ccc6[nH]5)cc4)cc3)nc2c1 [Example 119] | 0.002 µM |  |  |  |  |  |  |  |  | 
